Values quoted from earlier work in patent US20230165893A1, “TREATMENT OF VIRAL INFECTIONS” (SULFAGENIX, INC., priority 2020, published 2023).

Settings: pure elemental sulfur, stated as a contrast, no source given

solubility in carbon disulfide (in words): completely soluble
Compound: S1SSSSSSS1 [alpha-elemental sulfur, elemental alpha sulfur]
